Columns and labels:
[1] = system: PAF-induced hyperalgesia in Sprague-Dawley rats; assay: PAF-induced hyperalgesia assay (vocalization threshold, rat paw); format: in vivo; settings: po, read-out: PAF Induced Hyperalgesia Assay % inhibition; for responders at 1 mg/kg: 1 mg/kg p.o.; for responders at 3 mg/kg: 3 mg/kg p.o.
Method: Female Sprague-Dawley rats, 35-40 g were fasted overnight. Platelet activating factor, PAF, (L-lecithin B-acetyl O-alkyl) 1 μg/0.1 ml was given by subplantar injection in the rat paw. The compounds to be evaluated were homogenized in aqueous Vehicle (0.9% benzyl alcohol, 0.5% Tween 80 and 0.4% methylcellulose) and administered orally in a volume of 0.1 ml, 30 minutes prior to PAF.
Animals were tested 1, 2, 3 and 4 hours after PAF administration. The vocalization threshold, defined as the pressure (mm Hg) needed to evoke a squeak response, was recorded for both the injected and contralateral paw. No animal was subjected to pressure greater than 60 mm Hg. Hyperalgesia is defined as a decrease in vocalization threshold as compared to a normal paw. Percent inhibition of hyperalgesia was calculated as the proportion of animals with vocalization thresholds greater than 200% of controls.

asthmatic rats = assay: Asthmatic rat assay (duration of dyspnoea after egg albumin aerosol); format: in vivo; settings: po; for inhibition in vivo at 3 mg/kg: 3 mg/kg p.o.
Text: Rats were obtained from an inbred line of asthmatic rats. Both female and male rats from 200 to 300 g were used.
Egg albumin (EA), grade V, crystallized and lyophilized, was obtained from Sigma Chemical Co., St. Louis. Bordetella pertussis vaccine, containing 30×10^9 killed bacteria per ml was obtained from the Institut Armand-Frappier, Laval des Rapides, Quebec. Aluminum hydroxide was obtained from the Regeis Chemical Company, Chicago.
The challenge and subsequent respiratory recordings were carried out in a clear plastic box with internal dimensions 10×6×4 inches. The top of the box was removable; in use, it was held firmly in place by four clamps and an airtight seal was maintained by a soft rubber gasket. […] A Fleisch No. 0000 pneumotachograph was inserted into one end of the box and coupled to a Grass volumetric pressure transducer (PT5-A) which was then connected to a Beckman Type R Dynograph through appropriate couplers. While aerosilizing the antigen, the outlets were open and the pneumotachograph was isolated from the chamber. The outlets were closed and the pneumotachograph and the chamber were connected during the recording or the respiratory patterns. For challenge, 2 ml of a 3% solution of antigen in saline was placed into each nebulizer and the aerosol was generated with air from a small Potter diaphragm pump operating at 10 psi and a flow of 8 liters/minutes.
Rats were sensitized by injection (s.c.) 1 ml of a suspension containing 1 mg EA and 200 mg aluminum hydroxide in saline. Simultaneously, they received an injection (i.p.) of 0.5 ml of B. pertussis vaccine. They were used between days 14 and 18 postsensitization. In order to eliminate the serotonin component of the response, rats were pretreated intravenously 5 minutes prior to aerosol challenge with […] methylserzide. Rats were then exposed to an aerosol of 3% EA in saline for exactly 1 minute, then their respiratory profiles were recorded for a further 25-30 minutes. The duration of continuous dyspnoea was measured from the respiratory recordings.
Compounds were generally administered either intraperitoneally 1 hour prior to challenge or orally 11/2 hours prior to challenge. They were either dissolved in dimethylsulfoxide or suspended in 0.1% methocel and 0.5% Tween 80. The volume injected has 2 ml kg^-1 (intraperitoneally) or 10 ml kg^-1 (orally). Prior to oral treatment rats were starved overnight. Their activity was determined in terms of their ability to decrease the duration of symptoms of dyspnoea in comparison with a group of vehicle-treated controls. Usually, a compound was evaluated at a series of doses and an ED50 was determined. This was defined as the dose (mg/kg) which would inhibit the duration of symptoms by 50%.

SMILES | responders at 1 mg/kg [1] [%] | inhibition in vivo at 3 mg/kg (asthmatic rats) [%] | responders at 3 mg/kg [1] [%] | other results
COc1ccc2c(c1)Sc1cc(C)ccc1N2C | 30 | 58 | – | –
COc1ccc2c(c1)Sc1c(cc(OC)c(O)c1Br)N2C(=O)OC(C)OC(C)=O (stereo not drawn) | – | – | 60 | inhibition in vivo at 5 mg/kg (asthmatic rats; 5.0 mg/kg p.o.): 42%
c1ccc2c(c1)Nc1ccccc1S2 [drawing 61] | – | – | 50 | inhibition in vivo at 0.5 mg/kg (asthmatic rats; 0.5 mg/kg p.o.): 53%
COc1ccc2c(c1Cl)Sc1ccccc1N2C [drawing 64] | – | – | – | responders at 0.016 mg/kg ([1]; 0.016 mg/kg p.o.): 50%; inhibition in vivo at 0.2 mg/kg (asthmatic rats; 0.2 mg/kg p.o.): 50%
CC(C)C(=O)Oc1ccc2c(c1Cl)Sc1ccccc1N2C [drawing 66] | 70 | 35 | – | –
COc1ccc2c(c1Cl)Sc1ccccc1N2C(C)=O [drawing 70] | – | – | – | responders at 0.01 mg/kg ([1]; 0.01 mg/kg p.o.): 50%; inhibition in vivo at 1.5 mg/kg (asthmatic rats; 1.5 mg/kg p.o.): 59%
